According to ChEMBL document CHEMBL5321270, “Discovery of Pyrazolone Carbothioamide Derivatives as Inhibitors of the Pdr1-KIX Interaction for Combinational Treatment of Azole-Resistant Candidiasis” (J Med Chem, 2023):
pKi: −log10 of the molar value. In brackets after ≈: the same amount, converted by molar mass. Activity calls are given as the source filed them. No cut-off for these calls is given here.

Columns and labels:
[1] = Inhibition of fluorescent probe FITC tagged PDR1-KIX domain (unknown origin) protein-protein interaction assessed as inhibition constant incubated for 2 hrs by fluorescence polarization binding assay
Nakaseomyces glabratus [2] = assay: Antifungal activity against fluconazole-resistant Candida glabrata 0161 assessed as fungal growth inhibition incubated for 48 hrs by microplate reader assay; type: functional
Nakaseomyces glabratus [3] = assay: Antifungal activity against fluconazole-resistant Candida glabrata 0161 assessed as fractional inhibitory concentration incubated for 48 hrs in presence of fluconazole by microplate reader assay; type: functional
Nakaseomyces glabratus [4] = assay: Antifungal activity against fluconazole-resistant Candida glabrata 0161 assessed as fluconazole fractional inhibitory concentration incubated for 48 hrs in presence of fluconazole by microplate reader assay; type: functional
Nakaseomyces glabratus [5] = assay: Synergistic antifungal activity against fluconazole-resistant Candida glabrata 0161 assessed as fractional inhibitory concentration index incubated for 48 hrs in presence of fluconazole by checkerboard microdilution method; type: functional
Nakaseomyces glabratus [6] = assay: Antifungal activity against fluconazole-resistant Candida glabrata 9256 assessed as fungal growth inhibition incubated for 48 hrs by microplate reader assay; type: functional
Nakaseomyces glabratus [7] = assay: Antifungal activity against fluconazole-resistant Candida glabrata 8535 assessed as fungal growth inhibition incubated for 48 hrs by microplate reader assay; type: functional
Candida albicans [8] = assay: Antifungal activity against Candida albicans assessed as fungal growth inhibition incubated for 48 hrs by microplate reader assay; type: functional
Candida tropicalis = assay: Antifungal activity against Candida tropicalis 10186 assessed as fungal growth inhibition incubated for 48 hrs by microplate reader assay; type: functional
Candida parapsilosis = assay: Antifungal activity against Candida parapsilosis 20090 assessed as fungal growth inhibition incubated for 48 hrs by microplate reader assay; type: functional; conditions: Lodderomyces parapsilosis
[Candida] auris [9] = Antifungal activity against Candida auris 0030 assessed as fungal growth inhibition incubated for 48 hrs by microplate reader assay; type: functional; conditions: Candidozyma auris
[Candida] auris [10] = Antifungal activity against Candida auris 15448 assessed as fungal growth inhibition incubated for 48 hrs by microplate reader assay; type: functional; conditions: Candidozyma auris
Aspergillus fumigatus = assay: Antifungal activity against Aspergillus fumigatus 7544 assessed as fungal growth inhibition incubated for 48 hrs by microplate reader assay; type: functional
Nannizzia gypsea = assay: Antifungal activity against Microsporum gypseum assessed as fungal growth inhibition incubated for 48 hrs by microplate reader assay; type: functional
Trichophyton rubrum = assay: Antifungal activity against Trichophyton rubrum assessed as fungal growth inhibition incubated for 48 hrs by microplate reader assay; type: functional
Cryptococcus neoformans = assay: Antifungal activity against Cryptococcus neoformans H99 assessed as fungal growth inhibition incubated for 48 hrs by microplate reader assay; type: functional
Nakaseomyces glabratus [11] = assay: Antifungal activity against fluconazole-sensitive Candida glabrata 7669 assessed as fungal growth inhibition incubated for 48 hrs by microplate reader assay; type: functional, organism-based
Candida albicans [12] = assay: Antifungal activity against Candida albicans 103 assessed as fungal growth inhibition incubated for 48 hrs by microplate reader assay; type: functional, organism-based
Candida albicans [13] = assay: Antifungal activity against Candida albicans 5314 assessed as fungal growth inhibition incubated for 48 hrs by microplate reader assay; type: functional, organism-based
Candida albicans [14] = assay: Antifungal activity against Candida albicans 0029 assessed as fungal growth inhibition incubated for 48 hrs by microplate reader assay; type: functional, organism-based

Compound | pKi [1] | MIC (Nakaseomyces glabratus [2]) [µg/mL] | FIC (Nakaseomyces glabratus [3]) [µg/mL] | fluconazole MIC in combination (Nakaseomyces glabratus [4]) [µg/mL] | fractional inhibitory concentration index (FICI) (Nakaseomyces glabratus [5]) | MIC (Nakaseomyces glabratus [6]) [µg/mL] | MIC (Nakaseomyces glabratus [7]) [µg/mL] | MIC (Candida albicans [8]) [µg/mL] | MIC (Candida tropicalis) [µg/mL] | MIC (Candida parapsilosis) [µg/mL] | MIC ([Candida] auris [9]) [µg/mL] | MIC ([Candida] auris [10]) [µg/mL] | MIC (Aspergillus fumigatus) [µg/mL] | MIC (Nannizzia gypsea) [µg/mL] | Activity (Nakaseomyces glabratus [11]) | Activity (Nakaseomyces glabratus [6]) | Activity (Nakaseomyces glabratus [7]) | Activity (Candida albicans [12]) | Activity (Candida albicans [13]) | Activity (Candida albicans [14]) | also measured
Nc1cc(=O)n(C(=S)Nc2ccc(I)cc2)[nH]1 | 3.86 | 0.25 (≈ 0.694 µM) | 0.13 | 0.25 | 0.53 | 0.25 (≈ 0.694 µM) | 0.25 (≈ 0.694 µM) | 4 (≈ 11.1 µM) | 4 (≈ 11.1 µM) | 4 (≈ 11.1 µM) | 2 (≈ 5.55 µM) | 2 (≈ 5.55 µM) | 16 (≈ 44.4 µM) | 1 (≈ 2.78 µM) | – | – | – | – | – | – | MIC (Trichophyton rubrum): 1 µg/mL (≈ 2.78 µM); MIC (Cryptococcus neoformans): 0.063 µg/mL (≈ 0.175 µM)
N#CCC(=O)NNC(=O)Nc1ccc(Cl)cc1 | 3.56 | 64 (≈ 253 µM) | 4 | 16 | 0.56 | – | – | – | – | – | – | – | – | – | inactive | inactive | inactive | inactive | inactive | inactive | –
N#CCC(=O)NNC(=S)Nc1ccccc1Cl | 3.76 | 32 (≈ 119 µM) | 16 | 2 | 0.56 | – | – | – | – | – | – | – | – | – | inactive | inactive | inactive | inactive | inactive | inactive | –
COc1ccc(NC(=S)NNC(=O)CC#N)cc1 | 3.46 | > 64 | 2 | 16 | 0.53 | – | – | – | – | – | – | – | – | – | inactive | inactive | inactive | inactive | inactive | inactive | –
Nc1cc(=O)n(C(=S)Nc2ccccc2Cl)[nH]1 | 4.07 | 0.5 (≈ 1.86 µM) | 0.13 | 16 | 0.76 | 0.25 (≈ 0.93 µM) | 0.25 (≈ 0.93 µM) | 4 (≈ 14.9 µM) | 4 (≈ 14.9 µM) | 4 (≈ 14.9 µM) | 2 (≈ 7.44 µM) | 2 (≈ 7.44 µM) | 16 (≈ 59.5 µM) | 1 (≈ 3.72 µM) | – | – | – | – | – | – | MIC (Trichophyton rubrum): 1 µg/mL (≈ 3.72 µM); MIC (Cryptococcus neoformans): 0.063 µg/mL (≈ 0.234 µM)
N#CCC(=O)NNC(=O)Nc1cccc(Cl)c1 | 3.92 | > 64 | 2 | 16 | 0.53 | – | – | – | – | – | – | – | – | – | inactive | inactive | inactive | inactive | inactive | inactive | –
N#CCC(=O)NNC(=S)Nc1cccc(Cl)c1Cl | 4.43 | 16 (≈ 52.8 µM) | 8 | 2 | 0.56 | – | – | – | – | – | – | – | – | – | inactive | inactive | inactive | inactive | inactive | inactive | –
N#CCC(=O)NNC(=S)Nc1ccc(Cl)nc1 | 4.26 | 32 (≈ 119 µM) | 4 | 8 | 0.38 | – | – | – | – | – | – | – | – | – | inactive | inactive | inactive | inactive | inactive | inactive | –
N#CCC(=O)NNC(=S)Nc1ccc2[nH]ccc2c1 | 3.33 | > 64 | 2 | 16 | 0.53 | – | – | – | – | – | – | – | – | – | inactive | inactive | inactive | inactive | inactive | inactive | –
Nc1cc(=O)n(C(=S)Nc2ccc(Cl)cc2Cl)[nH]1 | 4.07 | 0.5 (≈ 1.65 µM) | 0.13 | 1 | 0.29 | 0.25 (≈ 0.825 µM) | 0.25 (≈ 0.825 µM) | 4 (≈ 13.2 µM) | 4 (≈ 13.2 µM) | 4 (≈ 13.2 µM) | 2 (≈ 6.6 µM) | 2 (≈ 6.6 µM) | 16 (≈ 52.8 µM) | 1 (≈ 3.3 µM) | – | – | – | – | – | – | MIC (Trichophyton rubrum): 1 µg/mL (≈ 3.3 µM); MIC (Cryptococcus neoformans): 0.063 µg/mL (≈ 0.208 µM)
Nc1cc(=O)n(C(=S)Nc2ccc(Cl)nc2)[nH]1 | 3.84 | 0.5 (≈ 1.85 µM) | 0.25 | 0.5 | 0.52 | 0.25 (≈ 0.927 µM) | 0.25 (≈ 0.927 µM) | 4 (≈ 14.8 µM) | 4 (≈ 14.8 µM) | 4 (≈ 14.8 µM) | 2 (≈ 7.42 µM) | 2 (≈ 7.42 µM) | 16 (≈ 59.3 µM) | 1 (≈ 3.71 µM) | – | – | – | – | – | – | MIC (Trichophyton rubrum): 1 µg/mL (≈ 3.71 µM); MIC (Cryptococcus neoformans): 0.063 µg/mL (≈ 0.234 µM)
Nc1cc(=O)n(C(=S)Nc2ccc(Cl)c(Cl)c2)[nH]1 | 3.96 | 0.25 (≈ 0.825 µM) | 0.13 | 0.25 | 0.53 | 0.25 (≈ 0.825 µM) | 0.25 (≈ 0.825 µM) | 4 (≈ 13.2 µM) | 4 (≈ 13.2 µM) | 4 (≈ 13.2 µM) | 2 (≈ 6.6 µM) | 2 (≈ 6.6 µM) | 16 (≈ 52.8 µM) | 1 (≈ 3.3 µM) | – | – | – | – | – | – | MIC (Trichophyton rubrum): 1 µg/mL (≈ 3.3 µM); MIC (Cryptococcus neoformans): 0.063 µg/mL (≈ 0.208 µM)
N#CCC(=O)NNC(=S)Nc1ccc2c(c1)CCC2 | 3.59 | 16 (≈ 58.3 µM) | 8 | 1 | 0.53 | – | – | – | – | – | – | – | – | – | inactive | inactive | inactive | inactive | inactive | inactive | –
N#CCC(=O)NNC(=S)Nc1ccc(Cl)cc1 | 3.86 | 64 (≈ 238 µM) | 2 | 16 | 0.53 | – | – | – | – | – | – | – | – | – | inactive | inactive | inactive | inactive | inactive | inactive | –
Nc1cc(=O)n(C(=S)Nc2cccc(Cl)c2Cl)[nH]1 | 4.57 | 0.25 (≈ 0.825 µM) | 0.063 | 2 | 0.31 | 0.25 (≈ 0.825 µM) | 0.25 (≈ 0.825 µM) | 4 (≈ 13.2 µM) | 4 (≈ 13.2 µM) | 4 (≈ 13.2 µM) | 2 (≈ 6.6 µM) | 2 (≈ 6.6 µM) | 16 (≈ 52.8 µM) | 1 (≈ 3.3 µM) | – | – | – | – | – | – | MIC (Trichophyton rubrum): 1 µg/mL (≈ 3.3 µM); MIC (Cryptococcus neoformans): 0.063 µg/mL (≈ 0.208 µM)
N#CCC(=O)NNC(=S)Nc1ccc(Cl)cc1Cl | 4.43 | 16 (≈ 52.8 µM) | 8 | 2 | 0.56 | – | – | – | – | – | – | – | – | – | inactive | inactive | inactive | inactive | inactive | inactive | –
N#CCC(=O)NNC(=S)Nc1ccc(N2CCOCC2)cc1 | 3.21 | 16 (≈ 50.1 µM) | 8 | 0.5 | 0.52 | – | – | – | – | – | – | – | – | – | inactive | inactive | inactive | inactive | inactive | inactive | –
Cc1ccc(NC(=S)NNC(=O)CC#N)cc1 | 3.32 | 64 (≈ 258 µM) | 2 | 16 | 0.53 | – | – | – | – | – | – | – | – | – | inactive | inactive | inactive | inactive | inactive | inactive | –
N#CCC(=O)NNC(=S)Nc1ccc(I)cc1 | 3.82 | 16 (≈ 44.4 µM) | 2 | 4 | 0.25 | – | – | – | – | – | – | – | – | – | inactive | inactive | inactive | inactive | inactive | inactive | –
